Measured values: the NIST ThermoML archive (doi:10.1016/j.fluid.2010.11.020)

Conditions: Liquid, Vibrating tube method

CCCCO [butan-1-ol]
mass density [kg/m3]
Conditions	373.15 K	383.15 K	393.15 K	403.15 K
100 kPa	–	732.2	–	–
10000 kPa	–	744.7	735.3	725.6
20000 kPa	–	754.6	746.4	737.3
30000 kPa	–	764.3	755.9	747.7
40000 kPa	–	772.2	764.9	756.9
50000 kPa	–	779.6	772.3	765.4
60000 kPa	–	786.6	779.6	772.8
70000 kPa	–	793.2	786.3	779.9
80000 kPa	–	799.1	792.8	786.5
90000 kPa	–	804.9	798.8	792.6
100000 kPa	–	810.3	804.3	798.5
110000 kPa	–	815.4	809.7	803.9
120000 kPa	–	820.4	814.7	809.1
130000 kPa	831	825	819.3	814.1
140000 kPa	835.3	829.6	823.9	819.3
